{
  "source": "the OligoGym collection",
  "note": "HELM strings list units from the 5' end as sugar, base in round brackets, then linkage (d deoxyribose, r ribose, m 2'-O-methyl, p phosphodiester). Strings are as the collection lists them; they lack the last nucleoside at the 3' end of the tested compound. [moe] = 2'-O-(2-methoxyethyl) (MOE); [sp] = phosphorothioate linkage; [m5C] = 5-methylcytosine",
  "data": [
    {"target": "APP", "assay": "mouse, dose not given", "settings": "ASO", "units": {"3 h FOB score": "score 0-7"}, "values": [
      {"substance": "RNA1{[moe]([m5C])[sp].[moe](T)p.[moe](T)p.[moe](A)p.[moe]([m5C])[sp].d(A)[sp].d(T)[sp].d([m5C])[sp].d(A)[sp].d(T)[sp].d(T)[sp].d(T)[sp].d(T)[sp].d([m5C])[sp].d(T)[sp].[moe](T)p.[moe](G)p.[moe]([m5C])[sp].[moe](A)}$$$$ (last 3' nucleoside missing)", "3 h FOB score": 1},
      {"substance": "RNA1{[moe](G)[sp].[moe](G)p.[moe]([m5C])p.[moe](A)p.[moe](T)p.[moe]([m5C])[sp].d(A)[sp].d([m5C])[sp].d(T)[sp].d(T)[sp].d(A)[sp].d([m5C])[sp].d(A)[sp].d(A)[sp].d(A)[sp].d([m5C])[sp].[moe](T)p.[moe]([m5C])[sp].[moe](A)}$$$$ (last 3' nucleoside missing)", "3 h FOB score": 0},
      {"substance": "RNA1{[moe](G)[sp].[moe]([m5C])p.[moe]([m5C])p.[moe](A)p.[moe](A)[sp].d([m5C])[sp].d(T)[sp].d(T)[sp].d(A)[sp].d(T)[sp].d(T)[sp].d([m5C])[sp].d(T)[sp].d([m5C])[sp].d(A)[sp].[moe](A)p.[moe](G)p.[moe](G)[sp].[moe](G)}$$$$ (last 3' nucleoside missing)", "3 h FOB score": 1},
      {"substance": "RNA1{[moe](G)[sp].[moe](T)p.[moe](G)p.[moe](T)p.[moe]([m5C])[sp].d(A)[sp].d(T)[sp].d(A)[sp].d(A)[sp].d([m5C])[sp].d(A)[sp].d(T)[sp].d(T)[sp].d(T)[sp].d(A)[sp].[moe]([m5C])p.[moe](T)p.[moe]([m5C])[sp].[moe](A)}$$$$ (last 3' nucleoside missing)", "3 h FOB score": 0},
      {"substance": "RNA1{[moe]([m5C])[sp].[moe](G)p.[moe](G)p.[moe]([m5C])p.[moe](A)[sp].d(G)[sp].d(T)[sp].d(T)[sp].d(T)[sp].d(A)[sp].d(A)[sp].d(A)[sp].d(A)[sp].d(T)[sp].d(T)[sp].[moe]([m5C])p.[moe](T)p.[moe]([m5C])[sp].[moe](T)}$$$$ (last 3' nucleoside missing)", "3 h FOB score": 0},
      {"substance": "RNA1{[moe](T)[sp].[moe]([m5C])p.[moe](A)p.[moe](T)p.[moe]([m5C])[sp].d(A)[sp].d(A)[sp].d([m5C])[sp].d(T)[sp].d(T)[sp].d(T)[sp].d(T)[sp].d(T)[sp].d(A)[sp].d(G)[sp].[moe](T)p.[moe]([m5C])p.[moe]([m5C])[sp].[moe](T)}$$$$ (last 3' nucleoside missing)", "3 h FOB score": 0.67},
      {"substance": "RNA1{[moe](G)[sp].[moe]([m5C])p.[moe](A)p.[moe](G)p.[moe](A)[sp].d(A)[sp].d(T)[sp].d([m5C])[sp].d([m5C])[sp].d(A)[sp].d([m5C])[sp].d(A)[sp].d(T)[sp].d(T)[sp].d(G)[sp].[moe](T)p.[moe]([m5C])p.[moe](A)[sp].[moe]([m5C])}$$$$ (last 3' nucleoside missing)", "3 h FOB score": 1.5},
      {"substance": "RNA1{[moe](T)[sp].[moe]([m5C])p.[moe](T)p.[moe](G)p.[moe](T)[sp].d(A)[sp].d(T)[sp].d(T)[sp].d(A)[sp].d(T)[sp].d(A)[sp].d([m5C])[sp].d(T)[sp].d([m5C])[sp].d(T)[sp].[moe](G)p.[moe](G)p.[moe](G)[sp].[moe]([m5C])}$$$$ (last 3' nucleoside missing)", "3 h FOB score": 2.5},
      {"substance": "RNA1{[moe](A)[sp].[moe](G)p.[moe](G)p.[moe](A)p.[moe]([m5C])[sp].d(A)[sp].d(T)[sp].d(T)[sp].d([m5C])[sp].d(A)[sp].d(T)[sp].d(T)[sp].d(T)[sp].d(T)[sp].d(T)[sp].[moe](G)p.[moe](A)p.[moe]([m5C])[sp].[moe]([m5C])}$$$$ (last 3' nucleoside missing)", "3 h FOB score": 1},
      {"substance": "RNA1{[moe](T)[sp].[moe](T)p.[moe](T)p.[moe](A)p.[moe]([m5C])[sp].d([m5C])[sp].d(T)[sp].d(T)[sp].d(T)[sp].d(A)[sp].d(A)[sp].d([m5C])[sp].d(A)[sp].d(T)[sp].d(T)[sp].[moe]([m5C])p.[moe]([m5C])p.[moe](T)[sp].[moe]([m5C])}$$$$ (last 3' nucleoside missing)", "3 h FOB score": 0},
      {"substance": "RNA1{[moe]([m5C])[sp].[moe](T)p.[moe](T)p.[moe](T)p.[moe]([m5C])[sp].d(T)[sp].d(A)[sp].d(T)[sp].d(T)[sp].d(T)[sp].d(A)[sp].d([m5C])[sp].d(T)[sp].d([m5C])[sp].d(A)[sp].[moe]([m5C])p.[moe](A)p.[moe](G)[sp].[moe]([m5C])}$$$$ (last 3' nucleoside missing)", "3 h FOB score": 0},
      {"substance": "RNA1{[moe](G)[sp].[moe]([m5C])p.[moe](T)p.[moe](A)p.[moe]([m5C])[sp].d(A)[sp].d(A)[sp].d(T)[sp].d(T)[sp].d(A)[sp].d(T)[sp].d([m5C])[sp].d([m5C])[sp].d(A)[sp].d([m5C])[sp].[moe](A)p.[moe](T)p.[moe](G)[sp].[moe](G)}$$$$ (last 3' nucleoside missing)", "3 h FOB score": 0},
      {"substance": "RNA1{[moe](T)[sp].[moe](G)p.[moe](G)p.[moe](T)p.[moe]([m5C])[sp].d(A)[sp].d(T)[sp].d(T)[sp].d(A)[sp].d([m5C])[sp].d(T)[sp].d(A)[sp].d([m5C])[sp].d(T)[sp].d(T)[sp].[moe](A)p.[moe]([m5C])p.[moe](A)[sp].[moe]([m5C])}$$$$ (last 3' nucleoside missing)", "3 h FOB score": 0},
      {"substance": "RNA1{[moe](T)[sp].[moe](T)p.[moe](G)p.[moe](A)p.[moe](T)[sp].d(A)[sp].d(T)[sp].d(T)[sp].d(T)[sp].d(G)[sp].d(T)[sp].d([m5C])[sp].d(A)[sp].d(A)[sp].d([m5C])[sp].[moe]([m5C])p.[moe]([m5C])p.[moe](A)[sp].[moe](G)}$$$$ (last 3' nucleoside missing)", "3 h FOB score": 2.5},
      {"substance": "RNA1{[moe](T)[sp].[moe](T)p.[moe](G)p.[moe](A)p.[moe](A)[sp].d([m5C])[sp].d([m5C])[sp].d([m5C])[sp].d(A)[sp].d([m5C])[sp].d(A)[sp].d(T)[sp].d([m5C])[sp].d(T)[sp].d(T)[sp].[moe]([m5C])p.[moe](T)p.[moe](G)[sp].[moe]([m5C])}$$$$ (last 3' nucleoside missing)", "3 h FOB score": 0},
      {"substance": "RNA1{[moe]([m5C])[sp].[moe](T)p.[moe](T)p.[moe](A)p.[moe]([m5C])[sp].d(A)[sp].d(A)[sp].d(A)[sp].d([m5C])[sp].d(T)[sp].d([m5C])[sp].d(A)[sp].d([m5C])[sp].d([m5C])[sp].d(A)[sp].[moe](A)p.[moe]([m5C])p.[moe](T)[sp].[moe](A)}$$$$ (last 3' nucleoside missing)", "3 h FOB score": 0},
      {"substance": "RNA1{[moe](G)[sp].[moe]([m5C])p.[moe](A)p.[moe]([m5C])p.[moe](T)[sp].d(A)[sp].d([m5C])[sp].d(A)[sp].d(T)[sp].d(T)[sp].d(G)[sp].d([m5C])[sp].d(T)[sp].d(T)[sp].d([m5C])[sp].[moe](A)p.[moe](T)p.[moe](A)[sp].[moe]([m5C])}$$$$ (last 3' nucleoside missing)", "3 h FOB score": 1},
      {"substance": "RNA1{[moe](T)[sp].[moe]([m5C])p.[moe](G)p.[moe](G)p.[moe](A)[sp].d([m5C])[sp].d(T)[sp].d(T)[sp].d(A)[sp].d([m5C])[sp].d(T)[sp].d(G)[sp].d(T)[sp].d(A)[sp].d(A)[sp].[moe](T)p.[moe](G)p.[moe](G)[sp].[moe](G)}$$$$ (last 3' nucleoside missing)", "3 h FOB score": 1.25},
      {"substance": "RNA1{[moe](G)[sp].[moe]([m5C])p.[moe](A)p.[moe](A)p.[moe](A)[sp].d([m5C])[sp].d([m5C])[sp].d(A)[sp].d([m5C])[sp].d(T)[sp].d(T)[sp].d([m5C])[sp].d(T)[sp].d(G)[sp].d(T)[sp].[moe](A)p.[moe](G)p.[moe]([m5C])[sp].[moe](T)}$$$$ (last 3' nucleoside missing)", "3 h FOB score": 0},
      {"substance": "RNA1{[moe](G)[sp].[moe]([m5C])p.[moe](A)p.[moe]([m5C])p.[moe](A)[sp].d(A)[sp].d([m5C])[sp].d(T)[sp].d(T)[sp].d(T)[sp].d(A)[sp].d(T)[sp].d(T)[sp].d(T)[sp].d([m5C])[sp].[moe](T)p.[moe](A)p.[moe](G)[sp].[moe](A)}$$$$ (last 3' nucleoside missing)", "3 h FOB score": 1},
      {"substance": "RNA1{[moe](G)[sp].[moe]([m5C])p.[moe](A)p.[moe](G)p.[moe](A)[sp].d(T)[sp].d([m5C])[sp].d(A)[sp].d(T)[sp].d(A)[sp].d(T)[sp].d(A)[sp].d([m5C])[sp].d(T)[sp].d(A)[sp].[moe](T)p.[moe](A)p.[moe]([m5C])[sp].[moe](A)}$$$$ (last 3' nucleoside missing)", "3 h FOB score": 0},
      {"substance": "RNA1{[moe](G)[sp].[moe](T)p.[moe](A)p.[moe](G)p.[moe](G)[sp].d(A)[sp].d(A)[sp].d([m5C])[sp].d(T)[sp].d([m5C])[sp].d(G)[sp].d(A)[sp].d(A)[sp].d([m5C])[sp].d([m5C])[sp].[moe](A)p.[moe]([m5C])p.[moe]([m5C])[sp].[moe](T)}$$$$ (last 3' nucleoside missing)", "3 h FOB score": 2},
      {"substance": "RNA1{[moe](A)[sp].[moe]([m5C])p.[moe](G)p.[moe](G)p.[moe](A)[sp].d([m5C])[sp].d(T)[sp].d(T)[sp].d(T)[sp].d(T)[sp].d(T)[sp].d(T)[sp].d([m5C])[sp].d(T)[sp].d(T)[sp].[moe]([m5C])p.[moe](T)p.[moe](T)[sp].[moe](G)}$$$$ (last 3' nucleoside missing)", "3 h FOB score": 0},
      {"substance": "RNA1{[moe](G)[sp].[moe](T)p.[moe]([m5C])p.[moe]([m5C])p.[moe](A)[sp].d(T)[sp].d(T)[sp].d(A)[sp].d([m5C])[sp].d(A)[sp].d(A)[sp].d(A)[sp].d([m5C])[sp].d(A)[sp].d(A)[sp].[moe](G)p.[moe](T)p.[moe](A)[sp].[moe](A)}$$$$ (last 3' nucleoside missing)", "3 h FOB score": 1},
      {"substance": "RNA1{[moe]([m5C])[sp].[moe]([m5C])p.[moe](T)p.[moe]([m5C])p.[moe](T)[sp].d(G)[sp].d([m5C])[sp].d(T)[sp].d(A)[sp].d([m5C])[sp].d(T)[sp].d(T)[sp].d([m5C])[sp].d(T)[sp].d(A)[sp].[moe]([m5C])p.[moe](T)p.[moe](A)[sp].[moe]([m5C])}$$$$ (last 3' nucleoside missing)", "3 h FOB score": 1},
      {"substance": "RNA1{[moe]([m5C])[sp].[moe]([m5C])p.[moe](A)p.[moe]([m5C])p.[moe](G)[sp].d(A)[sp].d([m5C])[sp].d([m5C])[sp].d(T)[sp].d(T)[sp].d(A)[sp].d([m5C])[sp].d(A)[sp].d([m5C])[sp].d(T)[sp].[moe](A)p.[moe](G)p.[moe](G)[sp].[moe](T)}$$$$ (last 3' nucleoside missing)", "3 h FOB score": 0}
    ]}
  ]
}
